Assay in all cases: NCI-60 cell line screen, 48 h
The subject of assay [1] is XF498.
Assay [2] deals with SN12C.
For assay [3], the system named is IGROV-1.
In assay [4] the test system is SF-268.
The subject of assay [5] is DMS-273.
Assay [6] relates to KM-20L2.
The subject of assay [7] is HOP-18.
Assay [8] concerns A549.
Assay [9] has as its system HOP-92.
Assay [10] has as its system DLD-1.
Assay [11] deals with DMS-114.
Assay [12] relates to SNB-78.
For assay [13], the system named is SF-295.
Assay [14] deals with TK-10.
For assay [15], the system named is M14.
Assay [16] relates to SR.
The test system of assay [17] is ACHN.

SMILES strings stand for the structures.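 Exposure lasted 48 hours, with cells grown in 96-well plates and compounds tested at five concentrations. Abbreviation: GI50, concentration required for 50% inhibition of growth.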 The source made the active and inactive calls. Rule as the data show it: active = GI50 up to about 1.1 µM and inactive = higher.

For the molecule `CSc1nc(NC2OC(CO)C(O)C(O)C2O)c(N)c(=O)[nH]1` (stereo unspecified), the GI50 in assay [1], in [2], in assay [3], in assay [4], in assay [5] and in assay [6] was > 100 µM (inactive) in each case. Besides, the GI50 in assay [7], in assay [8], in assay [9], in [10], in assay [11] and in assay [12] was > 100 µM (inactive) throughout. Also, the GI50 in assay [13] was > 100 µM (inactive).

`CNC(=O)SCC(N)C(=O)O` (stereo unspecified): the GI50 in assay [1] is 84.9 µM (inactive); in assay [2], > 95.9 µM (inactive); in [3] it was > 100 µM (inactive); in [4], > 100 µM (inactive); in [5], 71.4 µM (inactive); in assay [6], > 100 µM (inactive). Further, the GI50 in assay [7] is > 78.2 µM (inactive); in assay [8], > 100 µM (inactive); in assay [9] it was 51.9 µM (inactive); in assay [10] it was > 100 µM (inactive); in assay [11] it was 35.3 µM (inactive); in [12] it was > 100 µM (inactive). In addition, the GI50 in assay [13] was > 66.2 µM (inactive).

For `Cc1ccc(C)c(C(=O)CC2OC(O)C(Cl)C2Cl)c1` (stereo unspecified), the GI50 in assay [1] was > 100 µM (inactive); in [2], 5.7 µM (inactive); in [3], > 100 µM (inactive); in [14], > 100 µM (inactive); in [4], > 100 µM (inactive); in [5] it was 63.1 µM (inactive). Besides, the GI50 is > 100 µM (inactive) in [6]; > 100 µM (inactive) in assay [15]; > 100 µM (inactive) in assay [7]; 44 µM (inactive) in [16]; > 100 µM (inactive) in assay [8]; 30.6 µM (inactive) in [9]. The GI50 was 17.1 µM (inactive) in assay [10]; > 100 µM (inactive) in [11]; 60.1 µM (inactive) in [12]; 42.5 µM (inactive) in assay [17]; > 100 µM (inactive) in [13].

On to `O=C1c2cccc3cc4ccccc4c(c23)C(=O)N1CCNCCNCCNCCN1C(=O)c2cccc3cc4ccccc4c(c23)C1=O`, for which the GI50 in [1] was 0.0131 µM (active); in assay [2], < 0.027 µM (active); in [3] it was < 0.01 µM (active); in assay [4] it was < 0.01 µM (active); in assay [5], < 0.01 µM (active); in assay [6] it was < 0.0139 µM (active). The GI50 in [7] was 0.0405 µM (active); in [8] it was < 0.01 µM (active); in [9], 0.0111 µM (active); in assay [10], < 0.014 µM (active); in assay [11], 0.0114 µM (active); in [12] it was < 0.01 µM (active). For the same molecule, in assay [13], the GI50 is < 0.01 µM (active).
